From patent publication US8178523B2, “Compounds for the treatment of hepatitis C” (Bristol-Myers Squibb Company, priority 2008, dated 2012)

Experiments:
[1] = test system: HCV replicon cells; test: HCV replicon FRET / luciferase assay; assay type: cell-based; conditions: Hepatitis C virus, 50% reduction in FRET or luciferase activity
Protocol: FRET Assay Preparation. The HCV FRET screening assay was performed in 96-well cell culture plates. The FRET peptide (Anaspec, Inc.) (Taliani et al., Anal. Biochem. 1996, 240, 60-67) contains a fluorescence donor, EDANS, near one end of the peptide and an acceptor, DABCYL, near the other end. The fluorescence of the peptide is quenched by […] resonance energy transfer (RET) between the donor and the acceptor, but as the NS3 protease cleaves the peptide the products are released from RET quenching and the fluorescence of the donor becomes apparent. The assay reagent was made as follows: 5× cell Luciferase cell culture lysis reagent from Promega (#E153A) diluted to 1× with dH2O, NaCl added to 150 mM final, the FRET peptide diluted to 20 μM final from a 2 mM stock.
To prepare plates, HCV replicon cells, with or without a Renilla luciferase reporter gene, were trypsinized and plated in a 96-well plate with titrated test compounds added in columns 3 through 12; columns 1 and 2 contained a control compound (HCV control inhibitor), and the bottom row contained cells with DMSO only. The plates were then placed in a CO2 incubator at 37° C.
Assays. Subsequent to addition of the test compounds described above (FRET Assay Preparation), at various times the plate was removed and Alamar blue solution (Trek Diagnostics, #00-100) was added to measure cellular toxicity. After reading in a Cytoflour 4000 instrument (PE Biosystems), plates were rinsed with PBS and then used for FRET assay by the addition of 30 ul of the FRET peptide assay reagent described above (FRET Assay Preparation) per well. The plate was then placed into the Cytoflour 4000 instrument which had been set to 340 excite/490 emission, automatic mode for up to 20 cycles and the plate read in a kinetic mode. Typically, the signal to noise using an endpoint analysis after the reads was at least three-fold. Alternatively, after Alamar blue reading, plates were rinsed with PBS, then used for luciferase assay using the Promega Dual-Glo Luciferase Assay System or the Promega EnduRen Live Cell Substrate assay.
Compound analysis was performed by quantification of the relative HCV replicon inhibition and the relative cytotoxicity values. To calculate cytoxicity values, the average Alamar Blue fluorescence signals from the control wells were set as 100% non-toxic. The individual signals in each of the compound test wells were then divided by the average control signal and multiplied by 100% to determine […]. To calculate the HCV replicon inhibition values, an average background value was obtained from the two wells containing the highest amount of HCV control inhibitor at the end of the assay period. These numbers were similar to those obtained from naïve Huh-7 cells. The background numbers were then subtracted from the average signal obtained from the control wells and this number was used as 100% activity. The individual signals in each of the compound test wells were then divided by the averaged control values after background subtraction and multiplied by 100% to determine percent activity. EC50 values were calculated as the concentration which caused a 50% reduction in FRET or luciferase activity. The two numbers generated for the compound plate, percent cytoxicity and percent activity, were used to determine compounds of interest for further analysis.

[2] = target: T1, HCV NS5B RdRp (Hepatitis C virus genotype 1b, UniProt Q9WMX2); test: HCV NS5B RdRp enzyme assay; assay type: biochemical; conditions: HCV NS5B genotype 1b, standard or modified RdRp assay not given
T1 construct: The protein was expressed with an 18 amino acid C-terminal truncation to enhance the solubility; made in house; host or cells: E. coli BL21(DE3)
Protocol: HCV NS5B RdRp cloning, expression, and purification. The cDNA encoding the NS5B protein of HCV, genotype 1b, was cloned into the pET21a expression vector. The protein was expressed with an 18 amino acid C-terminal truncation to enhance the solubility. The E. coli competent cell line BL21(DE3) was used for expression of the protein. Cultures were grown at 37° C. for ˜4 hours until the cultures reached an optical density of 2.0 at 600 nm. The cultures were cooled to 20° C. and induced with 1 mM […]. Fresh ampicillin was added to a final concentration of 50 μg/ml and the cells were grown overnight at 20° C.
Cell pellets (3 L) were lysed for purification to yield 15-24 mgs of purified NS5B. The lysis buffer consisted of 20 mM Tris-HCl, pH 7.4, 500 mM NaCl, 0.5% triton X-100, 1 mM DTT, 1 mM EDTA, 20% glycerol, 0.5 mg/ml lysozyme, 10 mM MgCl2, 15 ug/ml deoxyribonuclease I, and Complete TM protease inhibitor tablets (Roche). After addition of the lysis buffer, frozen cell pellets were resuspended using a tissue homogenizer. To reduce the viscosity of the sample, aliquots of the lysate were sonicated on ice using a microtip attached to a Branson sonicator. The sonicated lysate was centrifuged at 100,000×g for 1 hr at 4° C. and filtered through a 0.2 μm filter unit (Corning).
The protein was purified using two sequential chromatography steps: Heparin sepharose CL-6B and polyU sepharose 4B (Pharmacia). The chromatography buffers were identical to the lysis buffer but contained no lysozyme, deoxyribonuclease I, MgCl2 or protease inhibitor and the NaCl concentration of the buffer was adjusted according to the requirements for charging the protein onto the column. Each column was eluted with a NaCl gradient which varied in length from 5-50 column volumes depending on the column type. After the final chromatography step, the resulting purity of the enzyme is >90% based on SDS-PAGE analysis. The enzyme was aliquoted and stored at −80° C.
Standard HCV NS5B RdRp enzyme assay. HCV RdRp genotype 1b assays were run in a final volume of 60 μl in 96 well plates (Corning 3600). The assay buffer is composed of 20 mM Hepes, pH 7.5, 2.5 mM KCl, 2.5 mM MgCl2, 1 mM DTT, 1.6 U RNAse inhibitor (Promega N2515), 0.01 mg/ml BSA (Sigma B6917), and 2% glycerol. All compounds were serially diluted (3-fold) in DMSO and diluted further in water such that the final concentration of DMSO in the assay was 2%. HCV RdRp genotype 1b enzyme was used at a final concentration of 28 nM. A polyA template was used at 6 nM, and a biotinylated oligo-dT12 primer was used at 180 nM final concentration. Template was obtained commercially (Amersham 27-4110). Biotinylated primer was prepared by Sigma Genosys. 3H-UTP was used at (0.29 μM total UTP). Reactions were initiated by the addition of enzyme, incubated at 30° C. for 60 min, and stopped by adding 25 μl of 50 mM EDTA containing SPA beads (4 μg/μl, Amersham RPNQ 0007). Plates were read on a Packard Top Count NXT after >1 hr incubation at room temperature.
Modified HCV NS5B RdRp enzyme assay. A modified enzyme assay was performed essentially as described for the standard enzyme assay except for the following: The biotinylated oligo dT12 primer was precaptured on streptavidin-coated SPA beads by mixing primer and beads in assay buffer and incubating at room temperature for one hour. Unbound primer was removed after centrifugation. The primer-bound beads were resuspended in 20 mM Hepes buffer, pH 7.5 and used in the assay at final concentrations of 20 nM primer and […] beads. Order of addition in the assay: enzyme (1.75 nM) was added to diluted compound followed by the addition of a mixture of template (0.36 nM), 3H-UTP (0.6 μCi, 0.29 μM), and primer-bound beads, to initiate the reaction; concentrations given are final. Reactions were allowed to proceed for 4 hours at 30° C.
IC50 values for compounds were determined using seven different [I]. […]

T1 sequence (Q9WMX2 2420-2992): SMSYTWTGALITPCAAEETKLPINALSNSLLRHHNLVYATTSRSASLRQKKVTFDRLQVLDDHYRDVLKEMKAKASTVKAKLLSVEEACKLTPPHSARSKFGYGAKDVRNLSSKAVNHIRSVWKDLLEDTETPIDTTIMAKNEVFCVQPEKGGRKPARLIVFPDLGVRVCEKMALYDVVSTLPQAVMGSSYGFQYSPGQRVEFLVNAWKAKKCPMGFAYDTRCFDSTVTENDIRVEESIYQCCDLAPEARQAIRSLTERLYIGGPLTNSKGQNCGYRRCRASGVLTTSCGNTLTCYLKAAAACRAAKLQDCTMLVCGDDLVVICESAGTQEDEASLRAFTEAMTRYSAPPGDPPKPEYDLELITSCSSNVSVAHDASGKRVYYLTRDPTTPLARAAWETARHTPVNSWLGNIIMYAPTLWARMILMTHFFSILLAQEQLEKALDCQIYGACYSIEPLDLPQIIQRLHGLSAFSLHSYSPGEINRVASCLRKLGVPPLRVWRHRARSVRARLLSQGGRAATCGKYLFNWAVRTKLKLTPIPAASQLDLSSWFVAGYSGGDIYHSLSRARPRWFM

Work on COc1ccc2c(c1)C1CC1(C(=O)N1CCCCC1c1nc(C(C)C)no1)Cn1c-2c(C2CCCCC2)c2ccc(C(=O)NS(=O)(=O)N(C)C)cc21 (centres unmarked) yielded an EC50 ([1]; class symbols) of 0.002 to 0.5 µM and an IC50 ([2]; class symbols) of 0.002 to 0.5 µM.

Work on COc1ccc2c(c1)C=C(C(=O)N1CCCCC1c1nc(C(C)C)no1)Cn1c-2c(C2CCCCC2)c2ccc(C(=O)NS(=O)(=O)N(C)C)cc21 (centres unmarked) yielded an EC50 ([1]; numeric values) of 1 µM and an IC50 ([2]; numeric values) of 0.15 µM.

In the case of COc1ccc2c(c1)C1CC1(C(=O)N1CCC(c3nc(C)no3)CC1)Cn1c-2c(C2CCCCC2)c2ccc(C(=O)NS(=O)(=O)N(C)C)cc21 (centres unmarked), the EC50 ([1]; numeric values) is reported as 0.09 µM and the IC50 ([2]; numeric values) is reported as 0.03 µM.

For COc1ccc2c(c1)C=C(C(=O)N1CCC(c3nc(C)no3)CC1)Cn1c-2c(C2CCCCC2)c2ccc(C(=O)NS(=O)(=O)N(C)C)cc21, the EC50 ([1]; numeric values) was 0.23 µM and the IC50 ([2]; numeric values) was 0.09 µM.

Work on COc1ccc2c(c1)C1CC1(C(=O)N1CCC(c3nncn3C)CC1)Cn1c-2c(C2CCCCC2)c2ccc(C(=O)NS(=O)(=O)N(C)C)cc21 (centres unmarked) yielded an EC50 ([1]; class symbols) of 0.002 to 0.5 µM and an IC50 ([2]; class symbols) of 0.002 to 0.5 µM.

For COc1ccc2c(c1)C=C(C(=O)N1CCC(c3nncn3C)CC1)Cn1c-2c(C2CCCCC2)c2ccc(C(=O)NS(=O)(=O)N(C)C)cc21, the EC50 ([1]; class symbols) was 0.002 to 0.5 µM and the IC50 ([2]; class symbols) was 0.002 to 0.5 µM.

COc1ccc2c(c1)C1CC1(C(=O)N1CCC(c3nc(C)no3)CC1)Cn1c-2c(C2CCCCC2)c2ccc(C(=O)NS(=O)(=O)C(C)C)cc21 (centres unmarked) was tested, and the EC50 ([1]; numeric values) was 0.1 µM and the IC50 ([2]; numeric values) was 0.03 µM.

Work on COc1ccc2c(c1)C1CC1(C(=O)N1CCC(c3nnc(N)s3)CC1)Cn1c-2c(C2CCCCC2)c2ccc(C(=O)NS(=O)(=O)N(C)C)cc21 (centres unmarked) yielded an EC50 ([1]; numeric values) of 0.19 µM and an IC50 ([2]; numeric values) of 0.06 µM.

Work on COc1ccc2c(c1)C1CC1(C(=O)N1CCC(c3nnc(C)o3)CC1)Cn1c-2c(C2CCCCC2)c2ccc(C(=O)NS(=O)(=O)N(C)C)cc21 (centres unmarked) yielded an EC50 ([1]; numeric values) of 0.05 µM and an IC50 ([2]; numeric values) of 0.02 µM.

COc1ccc2c(c1)C1CC1(C(=O)N1CCC(n3c(C)nnc3C)CC1)Cn1c-2c(C2CCCCC2)c2ccc(C(=O)NS(=O)(=O)N(C)C)cc21 (centres unmarked) showed an EC50 ([1]; class symbols) of 0.002 to 0.5 µM and an IC50 ([2]; class symbols) of 0.002 to 0.5 µM.

COc1ccc2c(c1)C1CC1(C(=O)N1CCC(c3nnc(C)o3)CC1)Cn1c-2c(C2CCCCC2)c2ccc(C(=O)NS(=O)(=O)C(C)C)cc21 (centres unmarked) was tested, and the EC50 ([1]; numeric values) was 0.11 µM and the IC50 ([2]; numeric values) was 0.07 µM.

COc1ccc2c(c1)C1CC1(C(=O)N1CCC(c3nnc(-c4ccccc4)o3)CC1)Cn1c-2c(C2CCCCC2)c2ccc(C(=O)NS(=O)(=O)N(C)C)cc21 (centres unmarked) gave an EC50 ([1]; class symbols) of 0.002 to 0.5 µM and an IC50 ([2]; class symbols) of 0.002 to 0.5 µM.

Work on COc1ccc2c(c1)C1CC1(C(=O)N1CCC(c3nc4ccccc4o3)CC1)Cn1c-2c(C2CCCCC2)c2ccc(C(=O)NS(=O)(=O)N(C)C)cc21 (centres unmarked) yielded an EC50 ([1]; class symbols) of 0.002 to 0.5 µM and an IC50 ([2]; class symbols) of 0.002 to 0.5 µM.
